Tested on: LRRK2 mRNA
Experiment: LRRK2 mRNA stability assay in the presence of actinomycin D
Format: cell-based, human
Details: SH-SY5Y, 2 mM AICAr, 24-h period, 10 μg/ml actinomycin D
Description: FIGS. 3A-3J depict that AICAr regulates LRRK2 at mRNA level and through a specific region. FIGS. 3A and 3B depict the LRRK2 protein levels upon treatment of AICAr together with a proteasome inhibitor MG132 or an autophagy inhibitor chloroquine (CQ). […] LRRK2 expression levels were analyzed by Western blot. Images were quantified by ImageJ software. Data are mean±SEM, n=3 independent experiments. ***p<0.001, ****p<0.0001 by one-way ANOVA followed by a Tukey's post hoc test. FIG. 3C depicts the LRRK2 and GBA mRNA levels upon AICAr treatment. SH-SY5Y cells were treated with or without 2 mM AICAr for 24 hours. Total RNA was extracted. LRRK2 and GBA mRNA levels were analyzed by real-time PCR. Data are mean±SEM, n=4 independent experiments. **p<0.01 by Student's t tests. ns: not statistically significant. […] LRRK2 mRNA levels were analyzed by real-time PCR. […] LRRK2 expression levels were analyzed by Western blot. Images were quantified by ImageJ software. […] LRRK2 deletion mutant expression levels were analyzed by Western blot. FIGS. 3I and 3J depict that the specific region (2221-3927 bp) of the synthesized Flag-LRRK2 cDNA was replaced with the native sequence and the response of this chimeric LRRK2 cDNA expression to AICAr treatment was analyzed by Western blot. Images were quantified by ImageJ software. […]

NC(=O)c1ncn([C@@H]2O[C@H](CO)[C@@H](O)[C@H]2O)c1N [AICAr, 5-aminoimidazole-4-carboxamide riboside]
acceleration of LRRK2 mRNA decay: about twofold

Reference: patent US20240075050A1, “Methods and Compositions for Treating Leucine Rich Repeat Kinase 2 (LRRK2)-Associated Disorder or Condition” (University of Connecticut, priority 2022, published 2024)
